What all share (format): in vivo, C57BL/6J mice
In one test the test system is D5D. Kind of test: Blood fatty acids (PD markers AA, DGLA, EPA, DHA) after 6-week treatment in DIO mice. The settings on record: sibutramine 30 mg/kg, 6 weeks. As for the experimental part: Fatty acids were extracted from blood and tissues by adding hexane-isopropanol-butylated hydroxytoluene (60:40:0.01, v/v/w). Samples were vortexed for 30 min. The hexane phase was removed and evaporated to dryness under nitrogen stream and vacuum. Dried samples were dissolved in methanol and analyzed by HPLC.
(§1) Mice were fed a high-fat diet (HFD) that has 60% kcal from fat and contains 0.09% (w/w) AA (D12492; Research diets, Inc., see S1 Table for fatty acid profile) from 5 weeks of age, and they were divided into 5 groups (7 animals per group) at 11 weeks of age based on BW and daily food intake. In this experiment, 30 mg/kg sibutramine, a […], was used as a positive control for anti-obesity effects. Mice were orally administered compound-326 at doses of 0.1, 1, and 10 mg/kg, sibutramine at a dose of 30 mg/kg, or vehicle for 6 weeks. After 6 weeks, blood concentrations of DGLA and AA under non-fasting condition were evaluated as pharmacodynamics (PD) markers, and oral glucose tolerance test (OGTT) was performed.

The subject of test [1] is DIO mice. The test is described as follows: Oral glucose tolerance test and HOMA-IR after 6-week treatment in DIO mice. The conditions noted are these: sibutramine 30 mg/kg, 6 weeks. The method, then: as §1
On the last day of the experiment, mice were given an oral glucose load (2 g/kg) after overnight fasting. Blood samples were collected at specified time points of 0 (pre-glucose/fasting glucose levels), 10, 30, 60, and 120 min post glucose load for the determination of plasma glucose as well as insulin levels. Plasma glucose was enzymatically measured with auto-analyzer 7180 (Hitachi High-Technologies Corporation, Tokyo, Japan). Plasma insulin was measured with mouse insulin ELISA kit (Shibayagi, Gunma, Japan). The total area under the glucose curve was determined from time 0 to 120 min (AUC0–120 min) after glucose administration. Homeostasis model assessment-insulin […] (HOMA-IR) was calculated using the formula: [(fasted PG: mg/dL)×(fasted insulin; μU/mL)[…]/405] [28].

Test [2] has as its system DIO mice. The test is described as follows: Anti-obesity effects in DIO mice, 6-week treatment (HFD D12492): BW, calorie intake, observations. The conditions noted are these: sibutramine 30 mg/kg p.o. The method, then:
In this report, we performed 3 independent studies in DIO mice to characterize anti-obesity effects of our D5D specific inhibitor. Male C57BL/6J mice were obtained from Charles River Laboratories (Yokohama, Japan) or CLEA Japan (Osaka, Japan). The mice were fed a laboratory chow and water ad libitum and housed in a 12-h light/dark cycle. Compound or vehicle was administered once daily between 15: 00–19:00 by oral gavage. Body weight (BW) and food intake were monitored throughout the experiment.
as §1

Structures can show the parent of a compound that is named as a salt.

In the case of `CC(C)CC(N(C)C)C1(c2ccc(Cl)cc2)CCC1` (stereo not drawn) [sibutramine, Sibutramine hydrochloride monohydrate, reference compound], in the test with D5D, the “blood AA level” value is “slightly but significantly decreased”, the “blood AA to DGLA ratio” value is “slightly but significantly decreased” and the “blood DGLA level” value is “slightly but significantly decreased”. In the test with DIO mice [1], the HOMA-IR entry was “significantly improved”. For the same molecule, the BW entry in the test on DIO mice [2] (6 weeks, BW then increased in line with food intake) was “potent BW loss for a week”. Further, the food intake result with DIO mice [2] (from day 1, followed by a rebound) is “transient and potent decrease in food intake”.

Values taken from paper PMC5104425, “A Novel Selective Inhibitor of Delta-5 Desaturase Lowers Insulin Resistance and Reduces Body Weight in Diet-Induced Obese C57BL/6J Mice” (PLoS ONE, 2016).
